Patent US20220378920A1, “CONJUGATE OF GalNAc-OLIGONUCLEOTIDE FOR DELIVERY TO LIVER AND MANUFACTURING METHOD THEREOF” (DAIICHI SANKYO COMPANY, LIMITED, priority 2019, published 2022)

Columns and labels:
ApoB mRNA = assay: Inhibition of ApoB mRNA expression in human primary hepatocytes, qRT-PCR (Taqman assay); assay type: cell-based; settings: 72 hours, wells with no compounds added taken as 100%
Protocol: FIG. 3 is a graph showing degradation effects of ApoB mRNA in human primary cultured hepatocytes when ApoB-ASO (white column) and an ApoB-ASO conjugate (filled column) are added to the cells. The amounts of ApoB mRNA in the cells are quantitatively evaluated relatively by qRT-PCR (corrected by the amount of actin mRNA). The Y axis represents relative values (%) in the addition groups when the amount of ApoB mRNA in untreated human primary cultured hepatocytes is taken as 100%.
FBS (Gibco) was added to a Modified Lanford Medium (Nissui Pharmaceutical Co., Ltd) to 10%, to prepare an adhesion medium. Frozen human primary hepatocytes (Gibco, Hu8105) were taken out from a liquid nitrogen tank, thawed at 37° C., then immediately poured into CHRM (Invitrogen), and gently mixed, followed by centrifugation (100 g, 10 minutes) at room temperature. The supernatant was removed with an aspirator, and then an adhesion medium heated to 37° C. was added, to prepare a cell suspension. The number of living cells was counted by an automatic counter (Bio-Rad Laboratories, Inc.), and then the cells were seeded on a collagen-coated 24-well plate (the number of living cells seeded: 1.4 to 2.1×10^5 cells/well). After culture in a CO2 incubator for 4 to 5 hours, the cells were confirmed to be adhered with a microscope, and the compound addition experiment described below was performed.
To a Modified Lanford Medium containing 10% FBS, was added the compound of Reference Example 45 with no GalNAc derivatives bound or the compound of Example 208 with a GalNAc derivative bound, to prepare a compound-containing medium with a target concentration (which was 100 nM in ApoB mRNA, expression evaluation (1) and 10 nM and 100 nM in ApoB mRNA expression evaluation (2), as described below). After the medium of human primary hepatocytes in each well cultured in the 24-well plate had been removed by aspiration, the compound-containing medium was added in an amount of 0.5 mL for each, to start incubation 72 hours later, the later-described RNA extraction experiment was performed
Following incubation, the compound-containing medium in each well of human primary hepatocytes was removed by aspiration and the cells were washed with ice-cooled PBS (0.5 mL). A 1/100 amount of 2-Mercaptoethanol was added to the RTL buffer of the RNeasy Mini QIAcube Kit (QIAGEN K.K.) to prepare a cell lysate. The cell lysate was added in an amount of 400 μL per well and collected after incubation at room temperature for 5 minutes. […]
The reverse transcription reaction was performed as follows. […] 20 μL of the reverse transcription reaction product was diluted 5 times with 80 μL of purified water and stored at −30° C. or evaluated by qRT-PCR as follows. […]

G6PC mRNA (c.648G>T) = assay: Repair of abnormal splicing of G6PC mRNA in 293A cells cotransfected with human G6PC full-length plasmid vector (pcDNA hG6PC (c.648G>T)+Int4), qRT-PCR (SYBR Green); assay type: cell-based; settings: cotransfection with plasmid vector, oligonucleotide final 20 nM, 24 hours
Protocol: 293A cells were maintained and cultured in a maintenance medium (DMEM, 10% FBS). In the experiment, cells were seeded on a 6-well plate at a density of 2×10^5 cells/well and on a 12-well plate at a density of 1×10^5 cells/well, and the compound of each example and a plasmid vector were simultaneously introduced on the next day, as will be described later, to be used for evaluation.
The compound of each example and a plasmid vector were cotransfected as follows.
In the case of using a 6-well plate, 250 μL of Opti-MEM Medium (Gibco), 0.50 μL of plasmid vector (1 mg/mL), and 4.0 μL (final: 20 nM) of the compound produced in each example (12.5 μM) as solution A and 250 μL of Opti-MEM Medium (Gibco) and 6.0 μL of Lipofectamine2000 (Invitrogen) as solution B were prepared per well, and solution A and solution B were mixed. […]
A human G6PC full-length plasmid vector (pcDNA hG6PC (c.648G>T)+Int4) and each oligonucleotide (15e_001, 15e_002, and the compound of Example 93 of International Publication No. WO 2004/048570 as a control) were cotransfected and evaluated by qRT-PCR (SYBR Green) for whether abnormal splicing due to G6PC (c.648G>T) was repaired. […]

Substance	inhibition of ApoB mRNA expression (ApoB mRNA; 10 nM) [%]	inhibition of ApoB mRNA expression (ApoB mRNA; 100 nM) [%]	abnormal splicing of G6PC mRNA due to G6PC (c.648G>T) repaired (G6PC mRNA (c.648G>T))
X^20-G^e2s-C^e2s-A^s-T^s-T^s-G^s-G^s-T^s-A^s-T^s-T^e2s-C^e2s-A^e2s-H [ApoB-ASO conjugate]	30.3	68.6	–
ApoB-ASO: oligonucleotide of the Example 24 sequence (SEQ ID No: 96) with no GalNAc units bound (AGCATTGGTATTCA; listed as DNA, further chemistry not given here)	4.4	41.2	–
15e_001: oligonucleotide sequence 15e_001, the sequence of Example 8 (SEQ ID No: 40), tested as oligonucleotide (AAUCCGATGGCGAAG; chemistry not given here) [Example 15e_001]	–	–	normalized
